The data set is described as follows: In vitro rat liver S9 stability assay (formation of tafamidis). As to conditions: rat liver S9, 1 μM test compound, 37° C. The format is in vitro ADME. How it is done: A stability assay in liver S9 (rat or human) was used to evaluate the ability of a compound provided herein to convert to an active TTR stabilizer. The test compound was added to liver S9 and incubated at 37° C. in a water bath at a concentration of 1 μM. At each time point (0, 5, 10, 20, 30 and 60 min), stop solution (tolbutamide plus labetalol) was added to precipitate protein and mixed thoroughly. After centrifugation, an aliquot of supernatant was analyzed by LC-MS/MS. The percentage of formation of active agent was calculated at each time point.
For `O=C(O[C@H]1C[C@@H](O)C1)c1ccc2nc(-c3cc(Cl)cc(Cl)c3)oc2c1` [Compound 63, (cis)-3-hydroxycyclobutyl 2-(3,5-dichlorophenyl) benzo[d]oxazole-6-carboxylate], the “Formation of tafamidis at 60 min” value was “A (A is <25%)”. Take `O=C(O[C@H]1C[C@H](O)C1)c1ccc2nc(-c3cc(Cl)cc(Cl)c3)oc2c1` [Compound 64, (trans)-3-hydroxycyclobutyl 2-(3,5-dichlorophenyl) benzo[d]oxazole-6-carboxylate]: the “Formation of tafamidis at 60 min” value is reported as “B (B is ≥25 to <50%)”. For the molecule `O=C(OC1CC(=O)N2CCCCC12)c1ccc2nc(-c3cc(Cl)cc(Cl)c3)oc2c1` (centres unmarked) [Compound 65, 3-oxooctahydroindolizin-1-yl 2-(3,5-dichlorophenyl)benzo-[d]oxazole-6-carboxylate], the “Formation of tafamidis at 60 min” value is given as “C (C is ≥50 to <75%)”. Turning to `O=C(OC1CCN(CCO)C1)c1ccc2nc(-c3cc(Cl)cc(Cl)c3)oc2c1` (centres unmarked) [Compound 66], the “Formation of tafamidis at 60 min” value is reported as “A (A is <25%)”. The entry for `COCCN1CCC(OC(=O)c2ccc3nc(-c4cc(Cl)cc(Cl)c4)oc3c2)C1` (centres unmarked) [Compound 67, 1-(2-methoxyethyl) pyrrolidin-3-yl 2-(3,5-dichlorophenyl) benzo[d]oxazole-6-carboxylate] is “A (A is <25%)”. Take `CC(Cc1cnc[nH]1)OC(=O)c1ccc2nc(-c3cc(Cl)cc(Cl)c3)oc2c1` (centres unmarked) [Compound 80]: the “Formation of tafamidis at 60 min” value was “A (A is <25%)”. The entry for `O=C(c1ccc2nc(-c3cc(Cl)cc(Cl)c3)oc2c1)N1CCOCC1` [Compound 81] is “A (A is <25%)”; for `O=C(c1ccc2nc(-c3cc(Cl)cc(Cl)c3)oc2c1)N1CCC(O)CC1` [Compound 82] it is “A (A is <25%)”; for `O=C(c1ccc2nc(-c3cc(Cl)cc(Cl)c3)oc2c1)N1CCCC1CO` (centres unmarked) [Compound 85] it is “A (A is <25%)”. Consider `O=C(c1ccc2nc(-c3cc(Cl)cc(Cl)c3)oc2c1)N1CC(O)C(F)(F)C1` (centres unmarked) [Compound 86], for which the “Formation of tafamidis at 60 min” value is recorded as “A (A is <25%)”. In the case of `CN(C)C(=O)c1ccc2nc(-c3cc(Cl)cc(Cl)c3)oc2c1` [Compound 87, 2-(3,5-Dichlorophenyl)-N,N-dimethylbenzo[d]oxazole-6-carboxamide], the “Formation of tafamidis at 60 min” value was “A (A is <25%)”. With `O=C(c1ccc2nc(-c3cc(Cl)cc(Cl)c3)oc2c1)N1CCCC1` [Compound 88], the “Formation of tafamidis at 60 min” value was “A (A is <25%)”.

As to `O=C(c1ccc2nc(-c3cc(Cl)cc(Cl)c3)oc2c1)N1CCCCC1` [Compound 89], the “Formation of tafamidis at 60 min” value was “A (A is <25%)”.

On to `O=C(c1ccc2nc(-c3cc(Cl)cc(Cl)c3)oc2c1)N(CCO)CC(F)F` [Compound 90], for which the “Formation of tafamidis at 60 min” value was “A (A is <25%)”. The entry for `O=C(c1ccc2nc(-c3cc(Cl)cc(Cl)c3)oc2c1)N(CCO)CCF` [Compound 91] is “A (A is <25%)”; for `CC1(O)CCN(C(=O)c2ccc3nc(-c4cc(Cl)cc(Cl)c4)oc3c2)C1` (centres unmarked) [Compound 92] it is “A (A is <25%)”; for `O=C(c1ccc2nc(-c3cc(Cl)cc(Cl)c3)oc2c1)N1CC2(CC(O)C2)C1` [Compound 94] it is “A (A is <25%)”.

As for `O=C(c1ccc2nc(-c3cc(Cl)cc(Cl)c3)oc2c1)N1CCCCC1CO` (centres unmarked) [Compound 95], the “Formation of tafamidis at 60 min” value is “A (A is <25%)”. As to `O=C(N[C@H]1CC[C@@H](O)CC1)c1ccc2nc(-c3cc(Cl)cc(Cl)c3)oc2c1` [Compound 96], the “Formation of tafamidis at 60 min” value is listed as “A (A is <25%)”. On to `O=C(N[C@H]1CC[C@H](O)CC1)c1ccc2nc(-c3cc(Cl)cc(Cl)c3)oc2c1` [Compound 97], for which the “Formation of tafamidis at 60 min” value was “A (A is <25%)”. For `O=C(NC1CC2(CC(O)C2)C1)c1ccc2nc(-c3cc(Cl)cc(Cl)c3)oc2c1` (centres unmarked) [Compound 98], the “Formation of tafamidis at 60 min” value was “A (A is <25%)”. The entry for `O=C(N[C@@H]1CCC[C@H](O)C1)c1ccc2nc(-c3cc(Cl)cc(Cl)c3)oc2c1` [Compound 99] is “A (A is <25%)”; for `O=C(N[C@@H]1CCC[C@@H](O)C1)c1ccc2nc(-c3cc(Cl)cc(Cl)c3)oc2c1` [Compound 100] it is “A (A is <25%)”. Consider `CC1(O)CCCN(C(=O)c2ccc3nc(-c4cc(Cl)cc(Cl)c4)oc3c2)C1` (centres unmarked) [Compound 102], for which the “Formation of tafamidis at 60 min” value is “A (A is <25%)”.

Turning to `CC1(O)CCN(C(=O)c2ccc3nc(-c4cc(Cl)cc(Cl)c4)oc3c2)CC1` [Compound 103], the “Formation of tafamidis at 60 min” value was “A (A is <25%)”. As for `O=C(c1ccc2nc(-c3cc(Cl)cc(Cl)c3)oc2c1)N1CCC2(CC(O)C2)C1` (centres unmarked) [Compound 105], the “Formation of tafamidis at 60 min” value was “A (A is <25%)”. Turning to `CC1(O)CC2(CCN(C(=O)c3ccc4nc(-c5cc(Cl)cc(Cl)c5)oc4c3)C2)C1` (centres unmarked) [Compound 106], the “Formation of tafamidis at 60 min” value was “A (A is <25%)”. As to `O=C(c1ccc2nc(-c3cc(Cl)cc(Cl)c3)oc2c1)N1CC2(CCC(O)C2)C1` (centres unmarked) [Compound 107], the “Formation of tafamidis at 60 min” value is on record as “A (A is <25%)”. With `O=C(c1ccc2nc(-c3cc(Cl)cc(Cl)c3)oc2c1)N1C[C@@H]2[C@H](O)[C@@H]2C1` [Compound 108] the entry was “A (A is <25%)”. Consider `O=C(c1ccc2nc(-c3cc(Cl)cc(Cl)c3)oc2c1)N1C[C@@H]2[C@@H](O)[C@@H]2C1` [Compound 109], for which the “Formation of tafamidis at 60 min” value is on record as “A (A is <25%)”. For `CC1(O)CC2(CN(C(=O)c3ccc4nc(-c5cc(Cl)cc(Cl)c5)oc4c3)C2)C1` [Compound 110], the “Formation of tafamidis at 60 min” value was “A (A is <25%)”. In the case of `CC1(O)CCC2(CN(C(=O)c3ccc4nc(-c5cc(Cl)cc(Cl)c5)oc4c3)C2)C1` (centres unmarked) [Compound 111], the “Formation of tafamidis at 60 min” value was “A (A is <25%)”.

Regarding `O=C(c1ccc2nc(-c3cc(Cl)cc(Cl)c3)oc2c1)N1CCC(F)C1` (centres unmarked) [Compound 112], the “Formation of tafamidis at 60 min” value is “A (A is <25%)”. Take `O=C(c1ccc2nc(-c3cc(Cl)cc(Cl)c3)oc2c1)N1CC(F)(F)C[C@H]1CO` [Compound 113]: the “Formation of tafamidis at 60 min” value is given as “A (A is <25%)”. With `O=C(c1ccc2nc(-c3cc(Cl)cc(Cl)c3)oc2c1)N1CC[C@@H](O)[C@@H](F)C1` [Compound 114] the entry was “A (A is <25%)”; with `O=C(c1ccc2nc(-c3cc(Cl)cc(Cl)c3)oc2c1)N1CCCCC(F)(F)C1` [Compound 115], “A (A is <25%)”; with `O=C(c1ccc2nc(-c3cc(Cl)cc(Cl)c3)oc2c1)N1CCC(O)C(F)(F)C1` (centres unmarked) [Compound 116], “A (A is <25%)”. Take `CC1(OC(=O)c2ccc3nc(-c4cc(Cl)cc(Cl)c4)oc3c2)CCNC1.Cl` (centres unmarked) [Compound 117]: the “Formation of tafamidis at 60 min” value is reported as “A (A is <25%)”. For `O=C(c1ccc2nc(-c3cc(Cl)cc(Cl)c3)oc2c1)N1CCCC1C(F)(F)F` (centres unmarked) [Compound 118], the “Formation of tafamidis at 60 min” value was “A (A is <25%)”.

Consider `CC1(OC(=O)c2ccc3nc(-c4cc(Cl)cc(Cl)c4)oc3c2)CCN(CC(F)(F)F)C1` (centres unmarked) [Compound 119], for which the “Formation of tafamidis at 60 min” value is listed as “A (A is <25%)”. With `CC1(OC(=O)c2ccc3nc(-c4cc(Cl)cc(Cl)c4)oc3c2)CCN(CCF)C1` (centres unmarked) [Compound 120] the entry was “A (A is <25%)”.

Consider `O=C(c1ccc2nc(-c3cc(Cl)cc(Cl)c3)oc2c1)N1C[C@@H](F)[C@@H](F)C1` [Compound 121], for which the “Formation of tafamidis at 60 min” value was “A (A is <25%)”. On to `CC1(OC(=O)c2ccc3nc(-c4cc(Cl)cc(Cl)c4)oc3c2)CCN(CC(F)F)C1` (centres unmarked) [Compound 122], for which the “Formation of tafamidis at 60 min” value is “C (C is ≥50 to <75%)”. Take `CC1(OC(=O)c2ccc3nc(-c4cc(Cl)cc(Cl)c4)oc3c2)CCNCC1.Cl` [Compound 123]: the “Formation of tafamidis at 60 min” value is listed as “A (A is <25%)”. For `CC1(OC(=O)c2ccc3nc(-c4cc(Cl)cc(Cl)c4)oc3c2)CCN(CC(F)(F)F)CC1` [Compound 124], the “Formation of tafamidis at 60 min” value is recorded as “A (A is <25%)”. `O=C(c1ccc2nc(-c3cc(Cl)cc(Cl)c3)oc2c1)N1CC[C@H](O)[C@H](F)C1` [Compound 125]: the “Formation of tafamidis at 60 min” value is on record as “A (A is <25%)”. `CCN1CCC(C)(OC(=O)c2ccc3nc(-c4cc(Cl)cc(Cl)c4)oc3c2)CC1` [Compound 126]: the “Formation of tafamidis at 60 min” value is “A (A is <25%)”.

(Values after patent US20240190831A1, “TRANSTHYRETIN STABILIZING COMPOUNDS” (Protego Biopharma, Inc., priority 2021, published 2024).)
